Measured values: patent publication US20100267561A1, “HERBICIDAL PYRIDAZINONE DERIVATIVES” (priority 2007, published 2010)

Experiments:
Format in all cases: in vivo
[1] = test system: barnyardgrass (Echinochloa crus-galli); assay: Test A pre-/postemergence plant response
Summary of the method: (§1)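 Soil: loam blended with sand. Formulation: non-phytotoxic solvent mixture plus surfactant, applied as preemergence directed soil spray and as postemergence spray. Scoring: visual, 0 no effect to 100 complete control, roughly 10 days post-treatment in greenhouse.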

[2] = test system: corn (Zea mays); assay: Test A pre-/postemergence plant response
Summary of the method: as §1

[3] = test system: giant foxtail (Setaria faberi); assay: Test A pre-/postemergence plant response
Summary of the method: as §1

[4] = test system: large crabgrass (Digitaria sanguinalis); assay: Test A pre-/postemergence plant response
Summary of the method: as §1

[5] = test system: morningglory (Ipomoea coccinea); assay: Test A pre-/postemergence plant response
Summary of the method: as §1

[6] = test system: pigweed (Amaranthus retroflexus); assay: Test A pre-/postemergence plant response
Summary of the method: as §1

[7] = test system: velvetleaf (Abutilon theophrasti); assay: Test A pre-/postemergence plant response
Summary of the method: as §1

[8] = test system: wheat (Triticum aestivum); assay: Test A pre-/postemergence plant response
Summary of the method: as §1

[9] = test system: blackgrass (Alopecurus myosuroides); assay: Test B pre-/postemergence plant response; conditions: for Blackgrass plant response rating: 8 g ai/ha, postemergence, 0-100 scale; for Plant response rating, Blackgrass: Postemergence
Description: (§2) Seeds of plant species selected from blackgrass (Alopecurus myosuroides), downy bromegrass (Bromus tectorum), green foxtail (Setaria viridis), Italian ryegrass (Lolium multiflorum), wheat (Triticum aestivum), wild oat (Avena fatua), catchweed bedstraw (Galium aparine), bermudagrass (Cynodon dactylon), surinam grass (Brachiaria decumbens), cocklebur (Xanthium strumarium), corn (Zea mays), large crabgrass (Digitaria sanguinalis), woolly cupgrass (Eriochloa villosa), giant foxtail (Setaria faberii), goosegrass (Eleusine indica), johnsongrass (Sorghum halepense), kochia (Kochia scoparia), lambsquarters (Chenopodium album), morningglory (Ipomoea coccinea), eastern black (E.B.) nightshade (Solanum ptycanthum), yellow nutsedge (Cyperus esculentus), pigweed (Amaranthus retroflexus), common ragweed (Ambrosia elation), Russian thistle (Salsola iberica), soybean (Glycine max), common (oilseed) sunflower (Helianthus annuus), and velvetleaf (Abutilon theophrasti) were planted and treated preemergence with test chemicals formulated in a non-phytotoxic solvent mixture which included a surfactant.
(§3) At the same time, plants selected from these crop and weed species and also winter barley (Hordeum vulgare), canarygrass (Phalaris minor), chickweed (Stellaria media) and windgrass (Apera spica-venti) were treated with postemergence applications of some of the test chemicals formulated in the same manner. Plants ranged in height from 2 to 18 cm (1- to 4-leaf stage) for postemergence treatments.
(§4) Plant species in the flooded paddy test consisted of rice (Oryza sativa), umbrella sedge (Cyperus difformis), ducksalad (Heteranthera limosa) and barnyardgrass (Echinochloa crus-galli) grown to the 2-leaf stage for testing. At time of treatment, test pots were flooded to 3 cm above the soil surface, treated by application of test compounds directly to the paddy water, and then maintained at that water depth for the duration of the test. Treated plants and controls were maintained in a greenhouse for 13 to 15 days, after which time all species were compared to controls and visually evaluated. Plant response ratings, summarized in Table B, are based on a scale of 0 to 100 where 0 is no effect and 100 is complete control. A dash (-) response means no test result.

[10] = test system: yellow nutsedge (Cyperus esculentus); assay: Test B pre-/postemergence plant response
Description: as §2, §3, §4

[11] = Postemergence, 125 g ai/ha, 0 to 100 scale, 0 no effect, 100 complete control
[12] = Postemergence, 500 g ai/ha, 0 to 100 scale, 0 no effect, 100 complete control
[13] = Preemergence, 125 g ai/ha, 0 to 100 scale (0 no effect, 100 complete control)
[14] = Preemergence, 500 g ai/ha, 0 to 100 scale (0 no effect, 100 complete control)
[15] = 62 g ai/ha, scale 0 to 100, 0 no effect, 100 complete control
[16] = 8 g ai/ha, postemergence, 0-100 scale
[17] = Postemergence, 62 g ai/ha, scale 0 to 100, 0 no effect, 100 complete control
[18] = Postemergence, 31 g ai/ha, 0 to 100 scale (0 no effect, 100 complete control)
[19] = Preemergence, 31 g ai/ha, 0 to 100 scale, 0 is no effect, 100 is complete control

For `Cn1ncc(O)c(-c2nn(-c3ccc(Cl)cc3)cc2Cl)c1=O` [Compound 28], the “Plant response rating, Barnyardgrass” value [1, 11] was 60, the “Plant response rating, Barnyardgrass” value [1, 12] was 100 and the “Plant response rating, Barnyardgrass” value [1, 13] was 100. The “Plant response rating, Barnyardgrass” value [1, 14] was 100, the “Plant response rating, Corn” value [2, 11] was 40 and the “Plant response rating, Corn” value [2, 12] was 90. For the same compound, the “Plant response rating, Corn” value [2, 13] was 80, the “Plant response rating, Corn” value [2, 14] was 90 and the “Plant response rating, Foxtail, Giant” value [3, 11] was 90. For the same compound, the “Plant response rating, Foxtail, Giant” value [3, 12] was 90, the “Plant response rating, Foxtail, Giant” value [3, 13] was 100 and the “Plant response rating, Foxtail, Giant” value [3, 14] was 100. The “Plant response rating, Crabgrass, Large” value [4, 11] was 80, the “Plant response rating, Crabgrass, Large” value [4, 12] was 90 and the “Plant response rating, Crabgrass, Large” value [4, 13] was 90. The “Plant response rating, Crabgrass, Large” value [4, 14] was 100, the “Plant response rating, Morningglory” value [5, 11] was 0 and the “Plant response rating, Morningglory” value [5, 12] was 30. The “Plant response rating, Morningglory” value [5, 14] was 0, the “Plant response rating, Pigweed” value [6, 11] was 0 and the “Plant response rating, Pigweed” value [6, 12] was 0. The “Plant response rating, Pigweed” value [6, 13] was 0, the “Plant response rating, Pigweed” value [6, 14] was 0 and the “Plant response rating, Velvetleaf” value [7, 11] was 0. For the same compound, the “Plant response rating, Velvetleaf” value [7, 12] was 0, the “Plant response rating, Velvetleaf” value [7, 13] was 0 and the “Plant response rating, Velvetleaf” value [7, 14] was 20. The “Plant response rating, Wheat” value [8, 11] was 50, the “Plant response rating, Wheat” value [8, 12] was 70 and the “Plant response rating, Wheat” value [8, 13] was 70. For the same compound, the “Plant response rating, Wheat” value [8, 14] was 100, the “Blackgrass plant response rating” value [9] was 60 and the “Plant response rating, Blackgrass” value ([9]; 16 g ai/ha, scale 0 to 100) was 70. The “Plant response rating, Blackgrass” value ([9]; 31 g ai/ha, scale 0 to 100, 0 no effect, 100 complete control) was 95, the “Plant response rating, Blackgrass” value [9, 15] was 100 and the “Nutsedge, Yellow plant response rating” value [10, 16] was 0. The “Plant response rating, Nutsedge, Yellow” value ([10]; Postemergence, 16 g ai/ha, scale 0 to 100) was 0, the “Plant response rating, Nutsedge, Yellow” value ([10]; Postemergence, 31 g ai/ha, scale 0 to 100, 0 no effect, 100 complete control) was 0 and the “Plant response rating, Nutsedge, Yellow” value [10, 17] was 0. The “Plant response rating, Nutsedge, Yellow” value ([10]; Preemergence, 16 g ai/ha, scale 0 to 100 (0 no effect, 100 complete control)) was 0, the “Plant response rating, Nutsedge, Yellow” value ([10]; Preemergence, 31 g ai/ha, 0 to 100 scale, 0 no effect, 100 complete control) was 0 and the “Plant response rating, Nutsedge, Yellow” value ([10]; Preemergence, 62 g ai/ha, scale 0 to 100) was 0. For the same compound, the “Nutsedge, Yellow plant response rating” value ([10]; Preemergence, 8 g ai/ha, scale 0 to 100) was 0.

`COCc1cc(-c2ccc(Br)cc2)nn1-c1c(O)cnn(C)c1=O` [Compound 68] was tested, and the “Plant response rating, Barnyardgrass” value [1, 18] was 10, the “Plant response rating, Barnyardgrass” value [1, 11] was 100 and the “Plant response rating, Barnyardgrass” value [1, 19] was 0. The “Plant response rating, Barnyardgrass” value [1, 13] was 90, the “Plant response rating, Corn” value [2, 18] was 0 and the “Plant response rating, Corn” value [2, 11] was 50. For the same compound, the “Plant response rating, Corn” value [2, 19] was 0, the “Plant response rating, Corn” value [2, 13] was 0 and the “Plant response rating, Foxtail, Giant” value [3, 18] was 50. The “Plant response rating, Foxtail, Giant” value [3, 11] was 90, the “Plant response rating, Foxtail, Giant” value [3, 19] was 10 and the “Plant response rating, Foxtail, Giant” value [3, 13] was 100. For the same compound, the “Plant response rating, Crabgrass, Large” value [4, 18] was 10, the “Plant response rating, Crabgrass, Large” value [4, 11] was 10 and the “Plant response rating, Crabgrass, Large” value [4, 19] was 0. For the same compound, the “Plant response rating, Crabgrass, Large” value [4, 13] was 10, the “Plant response rating, Pigweed” value [6, 18] was 0 and the “Plant response rating, Pigweed” value [6, 11] was 0. The “Plant response rating, Pigweed” value [6, 19] was 0, the “Plant response rating, Pigweed” value [6, 13] was 0 and the “Plant response rating, Wheat” value [8, 18] was 0. The “Plant response rating, Wheat” value [8, 11] was 0, the “Plant response rating, Wheat” value [8, 19] was 0 and the “Blackgrass plant response rating” value [9] was 0. The “Plant response rating, Blackgrass” value ([9]; 16 g ai/ha, scale 0 to 100) was 0, the “Plant response rating, Blackgrass” value ([9]; 31 g ai/ha, scale 0 to 100) was 50 and the “Plant response rating, Blackgrass” value [9, 15] was 85. For the same compound, the “Nutsedge, Yellow plant response rating” value [10, 16] was 0, the “Nutsedge, Yellow plant response rating” value ([10]; 16 g ai/ha, postemergence, 0-100 scale) was 0 and the “Plant response rating, Nutsedge, Yellow” value ([10]; Postemergence, 31 g ai/ha, scale 0 to 100) was 0. The “Plant response rating, Nutsedge, Yellow” value [10, 17] was 0.
